Legend:
[1] = system: B16F10 cells; test: B16F10 model of melanoma, with anti-PD1 and anti-CTLA4; assay type: in vivo, C57BL/6J male mice
Method: (§1) A representative compound of Formula IV, RvE1 magnesium dilysinate, was tested for efficacy in several mouse models of cancer, including the Panc2-H7 model of pancreatic cancer, the Lewis lung carcinoma (LLC) model, the MC38 model of colorectal cancer, and the B16F10 model of melanoma. These models are well established, highly tumorigenic syngeneic models in which murine cancer cell lines are injected subcutaneously (SC) into the dorsum of C57BL/6J mice. If left untreated, these tumors grow rapidly and lead to death or euthanasia, per protocol. As detailed below in Examples 1-9 and the accompanying figures, bis RvE1 Mg-di-lysinate (Compound 1) was unexpectedly effective as an anti-cancer agent in each of these model systems when administered in a less than daily (LTD) dosing regimen. […] Without being bound by any theory, the surprising efficacy of LTD dosing of resolvins in the cancer model systems described here may be the result of durable effects on the tumor microenvironment including changes in immune cell phenotype, vascularization, stromal phenotype, and antigen presentation, as well as durable effects on the T-cell compartment such as T-cell priming and increased tumor-infiltrating lymphocytes.
Based on the finding of increased efficacy with bis RvE1 Mg-di-lysinate administered in combination with anti-PD1 monotherapy and anti-CTLA4 monotherapy, a study was conducted to investigate the efficacy of less than daily (LTD) bis RvE1 Mg-di-lysinate combined with both anti-PD1 and anti-CTLA4 in the B16F10 model of melanoma. […] See Perez-Ruiz E, et al. Nature. 2019; 569(7756):428-432. Thus, this initial study with ICI dual therapy was designed to investigate whether use of bis RvE1 Mg-di-lysinate with the ICI dual therapy could enhance efficacy, which may offer the opportunity to reduce the dose of the ICI components of the regimen without loss of efficacy. A total of sixty-four (64) C57BL/6J male mice were injected subcutaneously with 1×10e6 living B16F10 cells in the dorsum. When tumors reached a mean tumor volume of approximately 130 mme3, the mice were randomized (n=8 per group) to treatment with vehicle, bis RvE1 Mg-di-lysinate (300 ug/kg, SC, Q6D), anti-PD1 (8 mg/kg, i.p., Q3D) or anti-CTLA-4 (4 mg/kg, Q3D). The double combinations of bis RvE1 Mg-di-lysinate and anti-CTLA-4 or anti-PD1, and anti-PD1 with anti-CTLA-4, as well as the triple combination of bis RvE1 Mg-di-lysinate, anti-CTLA-4 and anti-PD1 were also investigated. All combination arms used the same dosing regimens as the individual monotherapies. The mice were sacrificed on day 12 per protocol when the mean tumor of the vehicle group reached approximately 2,000 mm^3. […] This is clinically relevant for melanoma patients receiving anti-PD1 monotherapy, which is used when the side effects of ICI dual therapy are not tolerated.

[2] = system: LLC cells; test: Lewis lung carcinoma (LLC) model, with and without anti-PD1 or cisplatin; assay type: in vivo, C57BL/6J male mice; details: P<0.05
Method: as §1
To expand our understanding of bis RvE1 Mg-di-lysinate as a cancer therapy that could be used in combination with other cancer therapies including immune checkpoint inhibitors, bis RvE1 Mg-di-lysinate monotherapy and in combination either anti-PD1 or cisplatin was investigated in the LLC model of non-small cell lung cancer, which is a model known to unresponsive to anti-PD1 therapy and moderately responsive to cisplatin. Yu et al., J Exp Clin Cancer Res. 2010; 29(1):46; Lechner et al., J Immunother. 2013; 36(9):477-489. A total of forty (40) C57BL/6J male mice were injected subcutaneously with 1×10e6 living LLC cells. […] In addition, bis RvE1 Mg-di-lysinate was evaluated in combination with anti-PD1 or cisplatin. […]

[3] = system: MC-38 cells; test: MC38 model of colorectal cancer, subcutaneous tumors; assay type: in vivo, C57BL/6J male mice; details: 300 ug/kg, SC, single agent, P<0.05 vs placebo
Method: as §1, with “lymphocytes. […]” for “lymphocytes.”

[4] = system: subcutaneous KPC tumors; test: RNAseq cell enrichment analysis of subcutaneous KPC tumors; assay type: in vivo, mice; details: Q6D treatment, sacrificed on Day 26, compared to placebo
Method: RNAseq analysis was performed on tumor samples from mice with subcutaneous KPC tumors sacrificed on Day 26 following treatment (Q6D) with bis RvE1 Mg-di-lysinate (Compound 1) compared to placebo. […] Darker color indicates increased gene expression, for various immune cells and other cells, as listed across the top of the heatmap. […] Namely, these unexpected results may be due to durable effects on the tumor microenvironment including changes in immune cell phenotype and the T-cell compartment such as T-cell priming and increased tumor-infiltrating lymphocytes.

[5] = triple therapy (bis RvE1 Mg-di-lysinate + anti-CTLA-4 + anti-PD1), p<0.001

## CC[C@@H](O)/C=C/C=C\C[C@@H](O)/C=C/C=C/C=C\[C@@H](O)CCCC(=O)O [bis RvE1 Mg-di-lysinate]
[1]; double combination of bis RvE1 Mg-di-lysinate 300 ug/kg SC Q6D and anti-PD1 8 mg/kg i.p. Q3D, p<0.05
  inhibition compared to anti-PD1 monotherapy: 54%
[1]; monotherapy, 300 ug/kg, SC, Q6D
  efficacy of LTD dosing: effective as monotherapy
[1]; [5]
  tumor growth inhibition compared to anti-CTLA-4 monotherapy: 71%
  tumor growth inhibition compared to anti-PD1 monotherapy: 87%
[1]; triple therapy: bis RvE1 Mg-di-lysinate 300 ug/kg SC Q6D + anti-CTLA-4 4 mg/kg Q3D + anti-PD1 8 mg/kg i.p. Q3D, p<0.05
  inhibition, tumor volume at day 12 divided by tumor volume at day 0: 67%
[2]; bis RvE1 Mg-di-lysinate 30 ug/kg SC QD in combination with anti-PD1 8 mg/kg IP Q3D
  tumor volume (Day 11 vs Day 0): reduced tumor volume compared to placebo and cisplatin and anti-PD1 alone
[2]; bis RvE1 Mg-di-lysinate 30 ug/kg SC QD in combination with cisplatin 5 mg/kg i.p Q5D
  tumor volume (Day 11 vs Day 0): reduced tumor volume compared to placebo and cisplatin and anti-PD1 alone
[3]; Q3D
  tumor volume (Day 15 vs Day 0): effective as a single agent
[3]; QD
  tumor volume (Day 15 vs Day 0): effective as a single agent
[4]
  immune cell marker gene expression in tumors (RNAseq heatmap): increase in markers of monocytes and DC cell subset (cDCs, pDCs, and iDCs) and markers of NK, CD8+ T cells, Th1 cells, and memory T cells (CD8+ and CD4+)
